For experiment [1], the system named is SARS-CoV-2 (USA_WA1/2020). The experiment in a line: Antiviral Activity from SARS-CoV-2 Infection (cytopathic effect, Cell Titer-Glo). It is filed as cell-based. As to conditions: Severe acute respiratory syndrome coronavirus 2, Vero C1008, 72 h, tested alone or with P-gp inhibitor CP-100356 2 μM (table does not say which). Background: Protection from cytopathic effect is a common read-out in antiviral testing.

Another experiment concerns the target T1, SARS-CoV-2 3CL protease (Severe acute respiratory syndrome coronavirus 2, UniProt P0DTD1).
T1 construct: measures the activity of full-length SARS-CoV-2 3CL protease
The experiment in a line: SARS-CoV-2 Coronavirus 3C Protease FRET Assay. The format is biochemical. As to conditions: Examples 14-78 and 114 (second head of Table 2); Morrison equation fit, 15 nM enzyme, 25 μM peptide substrate; read-out: Geometric Mean Ki (nM) IC50.

Setting [2] is: VeroE6 cells enriched for hACE2, MOI 0.002, 3-day incubation, read-out: Geometric Mean EC50.

Drawing on patent publication US20250304559A1, “Ether-Linked Antiviral Compounds” (Pfizer Inc., priority 2021, published 2025), this text covers EC50 and Ki for 17 compounds.

Like-named read-outs stand apart in the source and are kept apart here.

Turning to `CC(C)(C)[C@H](NS(=O)(=O)C(F)(F)F)C(=O)N1C[C@H]2[C@@H]([C@H]1C(=O)N[C@@H](C[C@@H]1CCNC1=O)C(=O)COc1ccc(F)cc1)C2(C)C` [Example 29, (1R,2S,5S)-N-{(2S)-4-(4-fluorophenoxy)-3-oxo-1-[(3S)-2-oxopyrrolidin-3-yl]butan-2-yl}-6,6-dimethyl-3-[3-methyl-N-(trifluoromethanesulfonyl)-L-valyl]-3-azabicyclo[3.1.0]hexane-2-carboxamide], in experiment [1] (read-out: Geometric Mean EC50 (nM), VeroE6 cells enriched for hACE2, MOI 0.002, 3-day incubation), the EC50 (usually the midpoint of the concentration-response curve) turned out to be 57 nM. Besides, the inhibitory constant (Ki) (commonly a dissociation constant, usually derived from enzyme kinetics or from competition with a known ligand) on SARS-CoV-2 3CL protease amounted to 4.69 nM.

`COC(=O)N[C@H](C(=O)N1C[C@H]2[C@@H]([C@H]1C(=O)N[C@@H](C[C@@H]1CCNC1=O)C(=O)COc1ccccc1)C2(C)C)C(C)(C)C` [Example 30, methyl{(2S)-1-[(1R,2S,5S)-6,6-dimethyl-2-({(2S)-3-oxo-1-[(3S)-2-oxopyrrolidin-3-yl]-4-phenoxybutan-2-yl}carbamoyl)-3-azabicyclo[3.1.0]hexan-3-yl]-3,3-dimethyl-1-oxobutan-2-yl}carbamate]: in experiment [1] (setting [2]), the EC50 is 27.2 nM. The Ki at SARS-CoV-2 3CL protease turned out to be 2.15 nM.

As to `CCn1nc(C)cc1OCC(=O)[C@H](C[C@@H]1CCNC1=O)NC(=O)[C@@H]1[C@@H]2[C@H](CN1C(=O)[C@@H](NC(=O)OC)C(C)(C)C)C2(C)C` [Example 33, methyl {(2S)-1-[(1R,2S,5S)-2-({(2S)-4-[(1-ethyl-3-methyl-1H-pyrazol-5-yl)oxy]-3-oxo-1-[(3S)-2-oxopyrrolidin-3-yl]butan-2-yl}carbamoyl)-6,6-dimethyl-3-azabicyclo[3.1.0]hexan-3-yl]-3,3-dimethyl-1-oxobutan-2-yl}carbamate], the EC50 in experiment [1] (setting [2]) was 1270 nM. Besides, the Ki at SARS-CoV-2 3CL protease was 3.04 nM.

For `CC(C)(C)[C@H](NS(=O)(=O)C(F)(F)F)C(=O)N1C[C@H]2[C@@H]([C@H]1C(=O)N[C@@H](C[C@@H]1CCNC1=O)C(=O)COc1cc(F)ccc1F)C2(C)C` [Example 34, (1R,2S,5S)-N-{(2S)-4-(2,5-difluorophenoxy)-3-oxo-1-[(3S)-2-oxopyrrolidin-3-yl]butan-2-yl}-6,6-dimethyl-3-[3-methyl-N-(trifluoromethanesulfonyl)-L-valyl]-3-azabicyclo[3.1.0]hexane-2-carboxamide], the concentration giving a half-maximal response (EC50) in experiment [1] (setting [2]) stood at 86 nM. For the same compound, the Ki on SARS-CoV-2 3CL protease was 6.95 nM.

Take `CC(C)(C)[C@H](NS(=O)(=O)C(F)(F)F)C(=O)N1C[C@H]2[C@@H]([C@H]1C(=O)N[C@@H](C[C@@H]1CC(O)NC1=O)C(=O)COc1ccc(F)cc1F)C2(C)C` (stereo partly drawn) [Example 38, (1R,2S,5S)-N-{(2S)-4-(2,4-difluorophenoxy)-1-[(3R)-5-hydroxy-2-oxopyrrolidin-3-yl]-3-oxobutan-2-yl}-6,6-dimethyl-3-[3-methyl-N-(trifluoromethanesulfonyl)-L-valyl]-3-azabicyclo[3.1.0]hexane-2-carboxamide]: the 50% effective concentration (EC50) in experiment [1] (setting [2]) turned out to be 1390 nM. For the same compound, the Ki at SARS-CoV-2 3CL protease amounted to 4.12 nM.

`CC(C)[C@H](NC(=O)C(F)(F)F)C(=O)N1C[C@H]2[C@@H]([C@H]1C(=O)N[C@@H](C[C@@H]1CC(O)NC1=O)C(=O)COc1ccc(F)cc1F)C2(C)C` (stereo partly drawn) [Example 39, (1R,2S,5S)-N-{(2S)-4-(2,4-difluorophenoxy)-1-[(3R)-5-hydroxy-2-oxopyrrolidin-3-yl]-3-oxobutan-2-yl}-6,6-dimethyl-3-[N-(trifluoroacetyl)-L-valyl]-3-azabicyclo[3.1.0]hexane-2-carboxamide]: the EC50 in experiment [1] (setting [2]) is 306 nM. Also, on SARS-CoV-2 3CL protease, the Ki was determined as 3.7 nM.

Consider `CC(C)[C@H](NS(=O)(=O)C(F)(F)F)C(=O)N1C[C@H]2[C@@H]([C@H]1C(=O)N[C@@H](C[C@@H]1CCNC1=O)C(=O)COc1cccc(Cl)c1)C2(C)C` [Example 40, (1R,2S,5S)-N-{(2S)-4-(3-chlorophenoxy)-3-oxo-1-[(3S)-2-oxopyrrolidin-3-yl]butan-2-yl}-6,6-dimethyl-3-[N-(trifluoromethanesulfonyl)-L-valyl]-3-azabicyclo[3.1.0]hexane-2-carboxamide], for which the EC50 in experiment [1] (setting [2]) amounted to 112 nM. The Ki at SARS-CoV-2 3CL protease was determined as 4.22 nM.

Consider `CC(C)[C@H](NC(=O)C(F)(F)F)C(=O)N1C[C@H]2[C@@H]([C@H]1C(=O)N[C@@H](C[C@@H]1CC(=O)NC1=O)C(=O)COc1ccc(F)cc1F)C2(C)C` [Example 42, (1R,2S,5S)-N-{(2S)-4-(2,4-difluorophenoxy)-1-[(3R)-2,5-dioxopyrrolidin-3-yl]-3-oxobutan-2-yl}-6,6-dimethyl-3-[N-(trifluoroacetyl)-L-valyl]-3-azabicyclo[3.1.0]hexane-2-carboxamide], for which, in experiment [1] (setting [2]), the concentration giving a half-maximal response (EC50) stood at 301 nM. The Ki at SARS-CoV-2 3CL protease worked out at 7.05 nM.

Turning to `CC(C)(C)[C@H](NS(=O)(=O)C(F)(F)F)C(=O)N1C[C@H]2[C@@H]([C@H]1C(=O)N[C@@H](C[C@@H]1CC(=O)NC1=O)C(=O)COc1ccc(F)cc1F)C2(C)C` [Example 44, (1R,2S,5S)-N-{(2S)-4-(2,4-difluorophenoxy)-1-[(3R)-2,5-dioxopyrrolidin-3-yl]-3-oxobutan-2-yl}-6,6-dimethyl-3-[3-methyl-N-(trifluoromethanesulfonyl)-L-valyl]-3-azabicyclo[3.1.0]hexane-2-carboxamide], the EC50 in experiment [1] (setting [2]) came out at 408 nM. Besides, the Ki on SARS-CoV-2 3CL protease amounted to 8.95 nM.

As for `CC(C)[C@H](NC(=O)C(F)(F)F)C(=O)N1C[C@H]2[C@@H]([C@H]1C(=O)N[C@@H](C[C@@H]1CCNC1=O)C(=O)COc1ccccc1F)C2(C)C` [Example 47, (1R,2S,5S)-N-{(2S)-4-(2-fluorophenoxy)-3-oxo-1-[(3S)-2-oxopyrrolidin-3-yl]butan-2-yl}-6,6-dimethyl-3-[N-(trifluoroacetyl)-L-valyl]-3-azabicyclo[3.1.0]hexane-2-carboxamide], in experiment [1] (setting [2]), the EC50 was determined as 59.7 nM. Moreover, the Ki at SARS-CoV-2 3CL protease worked out at 8.58 nM.

`CC(C)[C@H](NC(=O)C(F)(F)F)C(=O)N1C[C@H]2[C@@H]([C@H]1C(=O)N[C@@H](C[C@@H]1CCNC1=O)C(=O)COc1ccc(F)c(F)c1)C2(C)C` [Example 48, (1R,2S,5S)-N-{(2S)-4-(3,4-difluorophenoxy)-3-oxo-1-[(3S)-2-oxopyrrolidin-3-yl]butan-2-yl}-6,6-dimethyl-3-[N-(trifluoroacetyl)-L-valyl]-3-azabicyclo[3.1.0]hexane-2-carboxamide]: in experiment [1] (setting [2]), the EC50 amounted to 44.3 nM. For the same compound, at SARS-CoV-2 3CL protease, the inhibition constant (Ki) came to 7.87 nM.

As to `CC(C)[C@H](NS(=O)(=O)C(F)(F)F)C(=O)N1C[C@H]2[C@@H]([C@H]1C(=O)N[C@@H](C[C@@H]1CC(=O)NC1=O)C(=O)COc1ccc(F)cc1F)C2(C)C` [Example 49, (1R,2S,5S)-N-{(2S)-4-(2,4-difluorophenoxy)-1-[(3R)-2,5-dioxopyrrolidin-3-yl]-3-oxobutan-2-yl}-6,6-dimethyl-3-[N-(trifluoromethanesulfonyl)-L-valyl]-3-azabicyclo[3.1.0]hexane-2-carboxamide], the 50% effective concentration (EC50) in experiment [1] (setting [2]) amounted to 2010 nM. Moreover, the Ki at SARS-CoV-2 3CL protease turned out to be 9.93 nM.

Regarding `CC(C)[C@H](NC(=O)C(F)(F)F)C(=O)N1C[C@H]2[C@@H]([C@H]1C(=O)N[C@@H](C[C@@H]1CCNC1=O)C(=O)COc1cccc(Cl)c1)C2(C)C` [Example 50, (1R,2S,5S)-N-{(2S)-4-(3-chlorophenoxy)-3-oxo-1-[(3S)-2-oxopyrrolidin-3-yl]butan-2-yl}-6,6-dimethyl-3-[N-(trifluoroacetyl)-L-valyl]-3-azabicyclo[3.1.0]hexane-2-carboxamide], the EC50 in experiment [1] (setting [2]) came to 76.2 nM. The Ki on SARS-CoV-2 3CL protease came out at 10.7 nM.

On to `Cc1ccc2c(OCC(=O)[C@H](C[C@@H]3CCNC3=O)NC(=O)[C@@H]3[C@@H]4[C@H](CN3C(=O)[C@@H](NC(=O)C(F)(F)F)C(C)C)C4(C)C)noc2c1` [Example 51, (1R,2S,5S)-6,6-dimethyl-N-{(2S)-4-[(6-methyl-1,2-benzoxazol-3-yl)oxy]-3-oxo-1-[(3S)-2-oxopyrrolidin-3-yl]butan-2-yl}-3-[N-(trifluoroacetyl)-L-valyl]-3-azabicyclo[3.1.0]hexane-2-carboxamide], for which the EC50 in experiment [1] (setting [2]) turned out to be 94.2 nM. In addition, the Ki on SARS-CoV-2 3CL protease is 10.5 nM.

As to `CC(C)[C@H](NC(=O)C(F)(F)F)C(=O)N1C[C@H]2[C@@H]([C@H]1C(=O)N[C@@H](C[C@@H]1CCNC1=O)C(=O)COc1ccc(F)cc1)C2(C)C` [Example 52, (1R,2S,5S)-N-{(2S)-4-(4-fluorophenoxy)-3-oxo-1-[(3S)-2-oxopyrrolidin-3-yl]butan-2-yl}-6,6-dimethyl-3-[N-(trifluoroacetyl)-L-valyl]-3-azabicyclo[3.1.0]hexane-2-carboxamide], the EC50 in experiment [1] (setting [2]) is 73.3 nM. On SARS-CoV-2 3CL protease, the Ki was determined as 10.5 nM.

Turning to `CC(C)[C@H](NC(=O)C(F)(F)F)C(=O)N1C[C@H]2[C@@H]([C@H]1C(=O)N[C@@H](C[C@@H]1CCNC1=O)C(=O)COc1cc(F)ccc1F)C2(C)C` [Example 53, (1R,2S,5S)-N-{(2S)-4-(2,5-difluorophenoxy)-3-oxo-1-[(3S)-2-oxopyrrolidin-3-yl]butan-2-yl}-6,6-dimethyl-3-[N-(trifluoroacetyl)-L-valyl]-3-azabicyclo[3.1.0]hexane-2-carboxamide], the EC50 in experiment [1] (setting [2]) was found to be 72.8 nM. Besides, the Ki at SARS-CoV-2 3CL protease was 12 nM.

Consider `CC(C)[C@H](NS(=O)(=O)C(F)(F)F)C(=O)N1C[C@H]2[C@@H]([C@H]1C(=O)N[C@@H](C[C@@H]1CC(O)NC1=O)C(=O)COc1ccc(F)cc1F)C2(C)C` (stereo partly drawn) [Example 54, (1R,2S,5S)-N-{(2S)-4-(2,4-difluorophenoxy)-1-[(3R)-5-hydroxy-2-oxopyrrolidin-3-yl]-3-oxobutan-2-yl}-6,6-dimethyl-3-[N-(trifluoromethanesulfonyl)-L-valyl]-3-azabicyclo[3.1.0]hexane-2-carboxamide], for which the EC50 in experiment [1] (setting [2]) turned out to be 2250 nM. Also, at SARS-CoV-2 3CL protease, the Ki is 11.3 nM.
